In patent US20100048605A1, “SYNERGISTIC EFFECTS OF COMBINATIONS OF N[…] OPIOIDS FOR THE TREATMENT OF PAIN” (University of Kentucky Research Foundation, priority 2006, published 2010):

Columns and labels:
[1] = tested on: rodent model of nociceptive pain (tail-flick test); assay: Tail-flick test after intrathecal (IT) administration; format: in vivo, Sprague Dawley male rats; conditions: rat
Protocol: Chronic catheterization of the spinal subarachnoid space was performed in Sprague Dawley male rats (about 90 days old, 350 g; Harlem, IN) according to minor modification of the method described by [Yaksh T and Rudy T. “Chronic catheterization of the spinal subarachnoid space” Physiol Behav (1976) 17:1031-1036]. Briefly, a 21 cm long P-10 polyethylene tubing (volume 10 mcl) which extended 8.5 cm beyond an incision in the atlanto-occipital membrane was inserted and secured to the scull with acrylic cement. The catheter rested in the vicinity of T-12 at the rostral face of the lumbar cord enlargement. The study was initiated 7 days after IT catheterization.
S(−)-nornicotine perchlorate (10 mcg), R(+)-nornicotine perchlorate (10 mcg) and morphine sulfate (0.5 mcg) were dissolved in saline and administered by the intrathecal (IT) route (10 mcl). Groups of rats was treated with S(−)-nornicotine alone and in combination with morphine, […] alone and in combination with morphine, morphine alone, and saline (10 mcl). The responses to acute thermal stimuli were determined using the tail-flick test (a baseline equal to about 2-3 seconds, cut-off time of 10 seconds). […] Data are presented as time courses of the TFL (normalized for baseline) and areas under the curve (AUC0-180min). All data are mean±SEM (n=4-6 rats). Doses refer to salts.

[2] = tested on: rodent model of nociceptive pain (tail-flick test); assay: Tail-flick test after intraperitoneal (IP) administration; format: in vivo, Sprague Dawley male rats; conditions: rat
Protocol: Sprague Dawley (about 90 days old, 350 g; Harlem, IN) male rats were used. S(−)-nornicotine fumarate (2.57 mg/kg), R(+)-nornicotine fumarate (2.57 mg/kg) and morphine sulfate (3 mg/kg) were dissolved in saline and injected intraperitonealy (IP, 1 ml/kg). Each rat received three treatments: either S(−)-nornicotine alone, morphine alone and S(−)-nornicotine followed by morphine or R(+)-nornicotine alone, morphine alone and R(+)-nornicotine followed by morphine. Injections were made in randomized fashion at 48 hour intervals. The responses to acute thermal stimuli were determined using the tail-flick test [D'Amour F. E., Smith D. L. “A method for determining loss of pain sensation” J Pharmacol Exp Ther (1941), 72:74-79]. Tail-flick latency (TFL) was measured by recording the time from the onset of the heat stimulus to the tail to withdrawal of the tail from the heat source, using a standard tail-flick apparatus (IITC, Life Science). The sensitivity of the instrument was adjusted to provide a baseline about 2 seconds. Cut-off time of 10 seconds was used to avoid tail damage. TFL were determined prior to (twice, about 15 minutes apart) and at […] after administration. Data were normalized for pre-injection baseline. Areas under the curve (AUC0-180min) were calculated for normalized data by trapezoidal rule. […]

[3] = following peripheral administration of nicotine; cited from earlier work
[4] = compared with nicotine; cited from earlier work
[5] = following repeated nicotine dosing; cited from earlier work
[6] = humans; cited from earlier work

c1cncc([C@@H]2CCCN2)c1 [S(−)-nornicotine]
analgesia of S(−)-nornicotine alone (tail-flick latency, AUC0-180min) ([1]; S(−)-nornicotine perchlorate 10 mcg alone): did not produce analgesia
effect on the analgesic effect of morphine (tail-flick latency, AUC0-180min) ([1]; S(−)-nornicotine perchlorate 10 mcg with morphine sulfate 0.5 mcg): significantly enhanced
analgesia of S(−)-nornicotine alone (tail-flick latency, AUC0-180min) ([2]; S(−)-nornicotine fumarate 2.57 mg/kg alone): did not produce analgesia
effect on the analgesic effect of morphine (tail-flick latency, AUC0-180min) ([2]; S(−)-nornicotine fumarate 2.57 mg/kg followed by morphine sulfate 3 mg/kg): significantly enhanced

CN1CCCC1c1cccnc1 (stereo not shown) [nicotine, reference compound]
residence in the rat's brain [3]: 52 min

c1cncc([C@@H]2CCCN2)c1 [nornicotine]
bioavailability (in words) [4]: superior
accumulation in the brain compared to nicotine [5]: about 4 fold
residence in the rat's brain [3]: 166 min
residence in the rat's brain relative to nicotine [3]: about 3 times
plasma half-life [6]: 8 h
